Measurements taken from ChEMBL document CHEMBL1201862, “PubChem BioAssay data set” (2004).
Calls of active or inactive are those of the source.

Tests used:
[1] = molecular target: T1, Apoptotic protease-activating factor 1 (Homo sapiens, UniProt O14727); assay: SAR analysis of small molecule Activators of Apaf-1 in a Fluorescent assay.; format: functional; conditions: read-out: EC50_Mean;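 further: caspase-3 cleavage of fluorogenic Rh110 DEVD substrate downstream of apoptosome activation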
T1 sequence (O14727 whole entry): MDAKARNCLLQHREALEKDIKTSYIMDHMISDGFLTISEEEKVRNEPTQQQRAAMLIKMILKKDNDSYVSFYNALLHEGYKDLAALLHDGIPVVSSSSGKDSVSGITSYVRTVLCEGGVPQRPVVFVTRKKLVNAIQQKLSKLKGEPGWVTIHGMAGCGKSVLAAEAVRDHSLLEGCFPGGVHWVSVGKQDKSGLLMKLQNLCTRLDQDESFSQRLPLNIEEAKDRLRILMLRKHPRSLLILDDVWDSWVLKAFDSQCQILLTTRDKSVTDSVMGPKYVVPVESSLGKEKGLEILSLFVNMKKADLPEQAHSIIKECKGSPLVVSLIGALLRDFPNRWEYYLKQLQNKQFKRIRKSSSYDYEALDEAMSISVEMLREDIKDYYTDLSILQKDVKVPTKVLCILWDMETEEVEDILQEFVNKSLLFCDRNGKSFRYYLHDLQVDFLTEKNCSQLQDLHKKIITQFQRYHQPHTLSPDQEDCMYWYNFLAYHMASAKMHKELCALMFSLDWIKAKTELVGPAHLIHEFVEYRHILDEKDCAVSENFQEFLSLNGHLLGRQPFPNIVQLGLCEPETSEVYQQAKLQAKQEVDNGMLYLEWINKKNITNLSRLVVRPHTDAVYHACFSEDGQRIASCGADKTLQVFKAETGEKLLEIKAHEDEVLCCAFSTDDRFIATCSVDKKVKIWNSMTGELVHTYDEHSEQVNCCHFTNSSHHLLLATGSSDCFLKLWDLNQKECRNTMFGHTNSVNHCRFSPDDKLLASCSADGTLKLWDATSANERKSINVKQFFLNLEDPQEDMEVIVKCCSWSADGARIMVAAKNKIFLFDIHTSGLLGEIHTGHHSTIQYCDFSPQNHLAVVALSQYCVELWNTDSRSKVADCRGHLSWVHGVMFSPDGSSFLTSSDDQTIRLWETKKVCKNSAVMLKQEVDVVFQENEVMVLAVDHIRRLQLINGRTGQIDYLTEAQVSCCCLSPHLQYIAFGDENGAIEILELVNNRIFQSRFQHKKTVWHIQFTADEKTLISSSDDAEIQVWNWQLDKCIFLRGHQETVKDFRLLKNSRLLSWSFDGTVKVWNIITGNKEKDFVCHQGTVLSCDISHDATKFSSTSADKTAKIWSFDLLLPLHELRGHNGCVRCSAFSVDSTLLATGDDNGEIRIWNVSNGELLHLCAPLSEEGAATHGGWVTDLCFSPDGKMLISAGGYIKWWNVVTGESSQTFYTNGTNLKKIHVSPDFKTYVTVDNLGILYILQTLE

[2] = molecular target: Benomyl/methotrexate resistance protein (Candida albicans, UniProt P28873); assay: Candida albicans Mdr1 pump inhibition curves – singleplex, Cherry Pick1 hits, dose response (AID 588608); format: functional
Chain of Benomyl/methotrexate resistance protein (P28873 whole entry): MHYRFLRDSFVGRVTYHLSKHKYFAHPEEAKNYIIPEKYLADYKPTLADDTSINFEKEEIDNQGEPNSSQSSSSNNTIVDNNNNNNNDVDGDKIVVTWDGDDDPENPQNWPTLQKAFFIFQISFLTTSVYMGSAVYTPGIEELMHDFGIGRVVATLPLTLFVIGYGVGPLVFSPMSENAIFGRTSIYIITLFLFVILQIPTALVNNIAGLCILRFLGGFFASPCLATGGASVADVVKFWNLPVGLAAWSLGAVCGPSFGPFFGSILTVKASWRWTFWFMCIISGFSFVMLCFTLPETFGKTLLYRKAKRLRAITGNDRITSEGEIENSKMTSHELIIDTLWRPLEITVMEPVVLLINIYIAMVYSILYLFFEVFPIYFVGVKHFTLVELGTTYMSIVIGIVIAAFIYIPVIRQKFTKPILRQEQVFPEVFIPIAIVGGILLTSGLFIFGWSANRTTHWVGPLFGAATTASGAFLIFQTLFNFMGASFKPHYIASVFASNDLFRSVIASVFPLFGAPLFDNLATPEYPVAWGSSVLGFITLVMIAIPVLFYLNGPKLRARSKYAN

Interleukin-8 [3] = molecular target: T2, Interleukin-8 (Homo sapiens, UniProt P10145); assay: Dose Response confirmation of uHTS small molecule hits for cystic fibrosis induced NFkb Inhibitors in a TNFa-induced IL8 counterscreen.; format: functional; conditions: read-out: IC50_Mean
T2 sequence (P10145 whole entry): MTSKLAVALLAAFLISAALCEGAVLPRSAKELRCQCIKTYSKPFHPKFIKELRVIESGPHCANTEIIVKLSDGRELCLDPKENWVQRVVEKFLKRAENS

Interleukin-8 [4] = molecular target: T2, Interleukin-8; assay: Dose Response confirmation of uHTS small molecule hits for cystic fibrosis induced NFkb Inhibitors in a PAF-induced IL8 counterscreen.; format: functional; conditions: read-out: IC50_Mean
Melanocortin receptor 4 = Melanocortin receptor 4 (Homo sapiens, UniProt P32245); assay: inhibitors of MC4R cAMP signaling – cell-based, TR-FRET, biased antagonists, dose response (AID 602298); format: functional;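 further: antagonist potency against agonist-stimulated cAMP production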
Chain of Melanocortin receptor 4 (P32245 whole entry): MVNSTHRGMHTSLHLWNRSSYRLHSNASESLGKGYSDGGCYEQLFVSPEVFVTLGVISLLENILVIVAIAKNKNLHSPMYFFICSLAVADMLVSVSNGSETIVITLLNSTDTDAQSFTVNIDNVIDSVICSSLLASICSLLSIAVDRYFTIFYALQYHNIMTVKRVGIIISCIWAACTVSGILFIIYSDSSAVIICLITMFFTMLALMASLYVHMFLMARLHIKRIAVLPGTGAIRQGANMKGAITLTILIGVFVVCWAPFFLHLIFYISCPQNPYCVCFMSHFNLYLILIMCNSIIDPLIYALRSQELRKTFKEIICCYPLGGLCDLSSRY

[5] = cAMP pathway inhibition in counterscreen cell line – TR-FRET cAMP detection, counter-screen for MC4R biased antagonist project, dose response (AID 602305); format: functional, cell-based;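 further: U2OS cells stimulated with forskolin near its EC80 as the cAMP inducer; potency is for inhibition of forskolin-stimulated cAMP signaling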

## CC1(C)CC2CC(C)(CN2C(=O)C2CC(c3ccc(F)cc3)=NO2)C1 (stereo unspecified)
[1]
  EC50: > 100 µM (inactive)

## COc1ccccc1-c1sc2ccccc2c1-c1ccc(OCCN2CCCCC2)cc1
[2]
  EC50: 18.9 µM (active)

## c1ccc2c(-c3ccc4nncn4c3)cncc2c1
Interleukin-8 [3]
  IC50: > 79 µM (inactive)
Interleukin-8 [4]
  IC50: 12.4 µM (inactive)

## O=S(=O)(c1ccc(Br)c2nsnc12)N1CCOCC1
Melanocortin receptor 4
  IC50: > 64.6 µM (inactive)
[5]
  IC50: > 64.6 µM (inactive)
